This assay concerns the target T1, KIT (Homo sapiens, UniProt P10721).
T1 construct: recombinant cytoplasmic portion of KIT, wild type (ProQinase #0997-0000-1)
The assay is described as follows: MicroScale Thermophoresis (MST). Format: binding. A general note: In MST a laser heats a spot of the sample, and binding alters the fluorescence response.

T1 sequence (P10721 544-976 limits assumed): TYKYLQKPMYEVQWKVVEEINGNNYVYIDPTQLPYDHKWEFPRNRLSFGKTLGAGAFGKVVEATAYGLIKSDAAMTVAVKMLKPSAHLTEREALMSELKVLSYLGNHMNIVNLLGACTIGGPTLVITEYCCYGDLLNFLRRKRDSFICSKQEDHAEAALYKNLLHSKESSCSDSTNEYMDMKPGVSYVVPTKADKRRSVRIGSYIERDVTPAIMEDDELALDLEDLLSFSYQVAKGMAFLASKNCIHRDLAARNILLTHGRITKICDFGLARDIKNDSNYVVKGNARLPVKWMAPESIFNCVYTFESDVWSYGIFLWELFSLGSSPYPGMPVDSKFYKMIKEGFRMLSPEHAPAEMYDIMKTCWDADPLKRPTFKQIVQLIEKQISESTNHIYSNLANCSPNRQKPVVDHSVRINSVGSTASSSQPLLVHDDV

Usually Kd stands for the constant that tells how readily two partners part at equilibrium. Lower therefore signals higher affinity. Take `Cn1cc(-c2ccc3c(c2)CCN3C(=O)Cc2cccc(C(F)(F)F)c2)c2c(N)ncnc21` [GSK414, 7-methyl-5-(1-{[3-(trifluoromethyl)phenyl]acetyl}-2,3-dihydro-1H-indol-5-yl)-7H-p yrrolo[2,3-d]pyrimidin-4-amine]: binding was put at a Kd of 0.664 ± 0.294 µM. `CC(C)(C)c1nc(-c2ccc(NC(=O)Nc3cccc(C(F)(F)F)c3)c3ccccc23)c2c(N)nccn12` [KIRA6] yielded a Kd of 10.8 ± 2.9 µM.
